# Reference: patent US6596863B2, “Medical composition containing nitroetheneamine Derivative or salt there of as active constituent” (Ishihara Sangyo Kaisha, Ltd., priority 1998, dated 2003)
# Like-named read-outs stand apart in the source and are kept apart here.
# Tests used:
# [1] = target: T1, human MMP-9 (gelatinase B) (Homo sapiens, UniProt P14780); assay: Inhibition activity against human MMP-9 (gelatinase B), fluorescent peptide substrate; assay type: biochemical
# T1 construct: endogenous in cells; host or cells: HT1080 human fibrosarcoma cells (ATCC CCL-121), PMA-stimulated; enzyme purified from the culture supernatant
# T1 sequence (P14780 107-707 limits assumed): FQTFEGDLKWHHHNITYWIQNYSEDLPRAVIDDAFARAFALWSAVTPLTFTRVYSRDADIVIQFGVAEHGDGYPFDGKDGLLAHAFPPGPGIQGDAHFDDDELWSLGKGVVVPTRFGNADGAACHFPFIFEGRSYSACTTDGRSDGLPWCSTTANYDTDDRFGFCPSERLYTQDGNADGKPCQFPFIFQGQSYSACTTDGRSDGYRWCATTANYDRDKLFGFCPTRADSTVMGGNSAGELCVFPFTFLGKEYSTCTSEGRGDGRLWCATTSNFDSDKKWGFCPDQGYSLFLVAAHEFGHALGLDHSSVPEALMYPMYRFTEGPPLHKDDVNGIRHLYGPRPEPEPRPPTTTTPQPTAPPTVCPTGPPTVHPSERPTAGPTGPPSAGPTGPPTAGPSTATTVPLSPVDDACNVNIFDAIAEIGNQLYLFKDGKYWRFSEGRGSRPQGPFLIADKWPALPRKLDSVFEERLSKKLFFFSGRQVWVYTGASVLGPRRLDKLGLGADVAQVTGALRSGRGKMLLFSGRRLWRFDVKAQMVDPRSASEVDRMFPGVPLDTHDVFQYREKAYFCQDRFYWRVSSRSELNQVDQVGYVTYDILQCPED
# Experimental: Human MMP-9 (gelatinase B) was purified by the following method from a culture supernatant of HT1080 cells (human fibrosarcoma).
# 2.5×10^6 HT1080 cells (ATCC CCL-121, purchased from Dainippon Seiyaku) were inoculated to a tissue culture dish (Code No. 3020-100, manufactured by Iwaki Glass Co., Ltd.) having a diameter of 10 cm and containing 10 ml of Dulbecco's Modified Eagle Medium (DME, No. D-5648, manufactured by Sigma Co.) containing 10% fetal bovine serum (FBS: REHATUIN™, Code No. 1020-90, manufactured by Intergen Co.) and cultured for 72 hours at 37° C. in an atmosphere comprising 5% of CO2 and 95% of air (Carbon Dioxide Incubator LNA-122D Model, manufactured by Tabai Co.). Then, the medium was changed to 10 ml of a DME culture medium containing no FBS, and phorbol 12-myristate 13-acetate (PMA, code No. 163-114851, manufactured by Wako Pure Chemical Industries, Ltd.) was added so that the final concentration became 10 ng/ml. Under the same conditions, the culturing was carried out for further 20 hours, whereupon the culture supernatant was collected and subjected to cool centrifugation at 4° C. for 5 minutes (cool centrifugal separator, manufactured by Hitachi) to remove cell fragments.
# The pH of a conditioned medium (50 ml) containing MMP-9, thus prepared, was adjusted to 8.0 with 0.2N NaOH. […] Namely, the above-mentioned conditioned medium was passed through DEAE-Sephacel (manufactured by Pharmacia, gel volume: about 35 ml) preliminarily equilibrated with 50 mM Tris-HCl, pH 8.0 (A buffer), and a non-adsorption fraction was collected. Then, it was added to Dye Matrix Gel Green A (manufactured by Amicon Co., gel volume: about 6 ml) preliminarily equilibrated with 50 mM Tris-HCl, pH 7.5/10 MM CaCl2/0.05% Brij 35/0.02% NaN3 (B buffer) and thoroughly washed with the same buffer, whereupon the adsorbed enzyme was eluted with a 1M NaCl-containing B buffer. About 7.5 ml of the eluted fraction was diluted twice with the B buffer and added to Gelatin-Sepharose 4B (manufactured by Pharmacia, gel volume: about 6 ml) preliminarily equilibrated with a 0.5 M NaCl-containing B buffer. It was thoroughly washed with a 0.5M NaCl-containing B buffer, and eluted with the B buffer containing 10% of dimethylsulfoxide (DMSO) and 0.5 M of NaCl. 5.5 ml of the eluted fraction was dialyzed against a 0.1 M NaCl-containing B buffer to obtain 5.2 ml of a purified enzyme solution. The purified MMP-9 standard product was confirmed to have a single band of 92 kDa by a protein staining by SDS electrophoresis, and further, it was confirmed to have an adequate gelatin decomposing activity by gelatinzymography (carried out in accordance with a method by Howard E. W. et al; Journal Biological Chemistry, Vol. 266, 13064-13069, 1991) and to have an adequate substrate decomposing activity by the after-mentioned measurement employing a fluorescent peptide substrate specific to MMP.
# The inhibition activity against human MMP-9 was measured by the following method in accordance with the method by C. G. Knight et al (FEBS Letters, Vol, 296, 263-266, 1992) employing a fluorescent peptide substrate (7-methoxycoumarin-4-yl)Acetyl-Pro-Leu-Gly-Leu-(3-[2,4-dinitrophenyl]—Ala—Arg-NH2, Code 3163-VC, manufactured by Peptide Institute, Inc.
# Further, as the case requires, commercially available human MMP-9 purified enzyme (No. YU-18003, manufactured by Kabushiki Kaisha Yagai Chuo Kenkyusho; used in a final concentration of from 0.0125 to 0.025 unit/ml, No. CC079, manufactured by Chemicon International, Inc.; used in a final concentration of 0.2 μg/ml) was used for the tests. […]
# [2] = intermediates, compounds of the formula (IV), 1st measurement, read-out: MMP-9 inhibition activities IC50, 1st
# [3] = intermediates, compounds of the formula (IV), average of 1st and 2nd (or single measurement), read-out: MMP-9 inhibition activities IC50, Average
# [4] = compounds of the formula (I), 1st measurement, read-out: MMP-9 inhibition activities IC50, 1st
# [5] = compounds of the formula (I), 2nd measurement, read-out: MMP-9 inhibition activities IC50, 2nd
# [6] = compounds of the formula (I), average of 1st and 2nd (or single measurement), read-out: MMP-9 inhibition activities IC50, Average
# [7] = intermediates, compounds of the formula (IV), 2nd measurement, read-out: MMP-9 inhibition activities IC50, 2nd
Compound,"IC50 [1, 2] [µM]","IC50 [1, 3] [µM]",melting point,"IC50 [1, 4] [µM]","IC50 [1, 5] [µM]","IC50 [1, 6] [µM]","IC50 [1, 7] [µM]"
CSC(=C[N+](=O)[O-])NS(=O)(=O)c1ccc(-c2ccccc2)cc1 [Intermediate 62],4.5,4.5,75 to 77 °C,–,–,–,–
CNC(=C[N+](=O)[O-])NNc1cccc(C)c1 [Compound No. 15],–,–,189 °C (dec.),46.8,52.7,49.8,–
COc1ccc(NC(=C[N+](=O)[O-])NN)cn1 [compound 115],–,–,162 to 165 °C,31.8,26.5,29.2,–
CCOC(=O)c1ccc(NC(=C[N+](=O)[O-])SC)cc1 [Intermediate 50],33.9,29.6,116 to 123 °C,–,–,–,25.3
CNC(=C[N+](=O)[O-])NNC(O)C(F)(F)F (stereo not drawn) [compound 23],–,–,144 to 145 °C,42.5,54.8,48.7,–
CSC(=C[N+](=O)[O-])Nc1ccc([N+](=O)[O-])cc1 [Intermediate 11],17.6,16.8,180 °C,–,–,–,15.9
CNC(=C[N+](=O)[O-])NNc1cc(C(F)(F)F)cc(OCCN2CCOCC2)n1 [compound 188],–,–,166 °C (dec.),6.2,–,6.2,–
CNC(=C[N+](=O)[O-])NNc1ccccc1[N+](=O)[O-] [compound 11],–,–,194 °C (dec.),31.9,33.7,32.8,–
CNC(=C[N+](=O)[O-])NNc1cc(C(F)(F)F)cc(OCC2CCCO2)n1 (stereo not drawn) [compound 129],–,–,97 to 99 °C,11.8,6.7,9.3,–
NNC(=C[N+](=O)[O-])Nc1ccccc1 [compound 87],–,–,153 °C (dec.),20.5,25.3,22.9,–
CNC(=C[N+](=O)[O-])NNc1cc(C(F)(F)F)cc(OCCOC(C)(C)C)n1 [compound 193],–,–,170 °C (dec.),10.5,–,10.5,–
CNC(=C[N+](=O)[O-])NN=Cc1ccc(C)cc1 [compound 137],–,–,172 °C (dec.),17.7,37.1,27.4,–
CSC(=C[N+](=O)[O-])Nc1ccc2c(c1)OCO2 [Intermediate 51],31.6,28.8,153 to 155 °C,–,–,–,26
CNC(=C[N+](=O)[O-])NNc1ccc(C)cc1 [Compound No. 16],–,–,186 °C (dec.),49.8,43.9,46.8,–
CNC(=C[N+](=O)[O-])NN=Cc1ccc2c(c1)OCCO2 [compound 141],–,–,179 °C (dec.),19.9,18.1,19,–
COc1ccc(NC(=C[N+](=O)[O-])NNc2ccc(C(F)(F)F)cn2)cc1 [compound 41],–,–,155 to 157 °C,15.1,13.7,14.4,–
CNC(=C[N+](=O)[O-])NN=C(C)c1cccs1 [compound 32],–,–,165 °C (dec.),26.7,24,25.4,–
CNC(=C[N+](=O)[O-])NNc1cc(C(F)(F)F)cc(OCCc2ccccn2)n1 [compound 124],–,–,181 °C (dec.),16.1,18.6,17.4,–
CNC(=C[N+](=O)[O-])NNc1ncnc2c(C)csc12 [compound 170],–,–,216 °C (dec.),5.6,–,5.6,–
O=[N+]([O-])C=C(NCC1CCCO1)NNc1cc(C(F)(F)F)cc(Cl)n1 (stereo not drawn) [compound 169],–,–,164 °C (dec.),6,9.6,7.8,–
COc1ccc(NC(=C[N+](=O)[O-])NN)cc1 [compound 49],–,–,195 °C (dec.),15.6,18,16.8,–
NNC(=C[N+](=O)[O-])NCc1ccc(C(F)(F)F)cc1 [compound 78],–,–,162 °C,44.1,36,40.1,–
NNC(=C[N+](=O)[O-])NCc1ccccc1 [compound 92],–,–,140 to 143 °C,15.4,20.6,18,–
Cc1nn(C)c(C)c1NC(=C[N+](=O)[O-])NN [compound 111],–,–,210 to 214 °C (dec.),45.5,26.8,36.2,–
CNC(=C[N+](=O)[O-])NNc1cccc(Cl)c1 [Compound No. 9],–,–,191 °C (dec.),42.2,43.9,43.1,–
CNC(=C[N+](=O)[O-])NNc1ccc(OC)cc1 [compound 17],–,–,168 °C (dec.),43.8,28.8,36.3,–
CNC(=C[N+](=O)[O-])NNc1ccccn1 [compound 22],–,–,156 °C (dec.),17.9,17.4,17.7,–
CNC(=C[N+](=O)[O-])NNc1cc(C(F)(F)F)cc(OCCSc2ccccc2)n1 [compound 195],–,–,170 °C (dec.),11.6,–,11.6,–
NNC(=C[N+](=O)[O-])Nc1ccc2c(c1)OCO2 [compound 110],–,–,177 to 180 °C (dec.),35.2,29.3,32.3,–
